Measured values published in patent publication US20250058002A1, “ELECTROCHEMICAL INHIBITION OF REDOX ACTIVE BACTERIA AND RELATED DEVICES, METHODS AND SYSTEMS” (priority 2023, published 2025).
Like-named read-outs stand apart in the source and are kept apart here.

Legend:
[1] = Midpoint potential E1/2 by voltammetry vs Ag/AgCl (3M KCl); assay type: physicochemical; conditions: Example 15 table
Description: The purified redox-active molecule can be dissolved in aqueous solution at appropriate concentration in the presence of supporting electrolyte and buffer to select the pH of measurement. For example, the redox-active molecule can be dissolved in 10 μM-10 mM concentrations in distilled, deionized water (DDW). The supporting electrolyte can be a salt such as NaCl or KCl at 0.01-0.5 M concentrations, for example, dissolved in DDW. The buffer can be 10 mM ammonium acetate/3-(N-morpholino)propanesulfonic acid at pH 7, or phosphate-buffered saline (PBS) at pH 7.4, or sodium acetate buffer at pH 5, or di-sodium hydrogen phosphate/potassium dihydrogen phosphate at pH 9, or boric acid/citric acid/trisodium phosphate for a wide range of pH values, for example.
Voltammetric methods are then used to characterize the electrochemical behavior of the redox-active molecule in such solution, with a potentiostat such as a Gamry PC4-300, using a three-electrode setup with working electrode (glassy carbon, or platinum, or gold), counter electrode (platinum wire) and reference electrode (Ag/AgCl (3M KCl), or SCE, or NHE; values are reported relative to Ag/AgCl (3M KCl) which has potential +197 mV vs. NHE at 298K).
For example, cyclic voltammetry may be used. In a cyclic voltammetry experiment phenazines will show a peak on the cathodic sweep (denoted Epc) corresponding to the reduction of the redox molecule.
The reverse, anodic sweep will show a peak (denoted Epa) corresponding to the re-oxidation of the redox molecule. If the electrode reaction is diffusion-controlled and reversible, the cathodic and anodic peak currents will be equal in area, and the mid-point between these peaks may be taken as the formal reduction potential of the redox molecule under the experimental conditions used. This value can interchangeably be referred to as the “midpoint potential” or “mid-peak potential”, denoted E1/2.
PYO was purified from aerobic bacterial cultures and was dissolved in 0.1 M KCl aqueous solution buffered with 10 mM ammonium acetate-3-(N-morpholino)propanesulfonic acid (5 mM each, pH 7) to yield a stock solution concentration of 829 μM PYO. Electrochemical measurements were performed with a Gamry PC4-300 potentiostat. A stationary gold disk electrode (BASi) was used as the working electrode, an Ag/AgCl electrode (RE-51, BASi) as the reference, and a straight platinum wire (BASi) was the counter electrode. Scans were performed between 20 and 500 mV/s in the potential range of around E1/2 (+/−300 mV), at 298 K.
As described in en.wikipedia.org/wiki/Nernst_equation, the Nernst equation relates E1/2 measured at pH 7 to the E1/2 at a different pH by:
[formula] • where E1/2 is in V • h is the number of protons transferred in the electrochemical reaction • e is the number of electrons transferred in the electrochemical reaction

[2] = from Wang and Newman (2008), cited from earlier work
[3] = oxidized form; literature values (footnotes a, c, d); cited from earlier work
[4] = test system: PA14; assay: Redox cycles over 7 days and support of survival (Table 4); assay type: cell-based, P. aeruginosa
Description: (§1) Phenazines and other redox active compound in the sense of the disclosure can be further characterized by various electrical properties such as a standard electrode potential E° vs. NHE of −500 mV to 500 mV and other properties such as number of redox cycle over a certain period of time (e.g. number of days) as ability to support survival and susceptibility to reduction by enzymes and/or bacterial strains.

[5] = test system: PA14; assay: Reduction of redox-active compound by PA14 (Table 4); assay type: cell-based, P. aeruginosa
Description: as §1

[6] = vs NHE at pH7; cited from earlier work
[7] = Standard electrode potential E0' vs NHE of exemplary redox-active compounds (Table 4); assay type: physicochemical; conditions: measured in aqueous solution at pH 7 in this study (footnote b)
Description: as §1

With `C[n+]1c2ccccc2nc2c(C(=O)O)cccc21` the “E1/2 (vs. Ag/AgCl (3M KCl))/mV” value ([1]; pH 7) was 0 mV.

With `O=C(O)c1cccc2nc3c(C(=O)O)cccc3nc12` the “E1/2 (vs. Ag/AgCl (3M KCl))/mV” value ([1]; pH 7) was 0 mV.

In the case of `O=C1c2ccc(S(=O)(=O)O)cc2C(=O)C2C=CC(S(=O)(=O)O)=CC12` (stereo not shown), the “E1/2 (vs. Ag/AgCl (3M KCl))/mV” value ([1]; pH 7) is reported as −381 mV.

In the case of `Oc1cccc2nc3ccccc3nc12` [1-Hydroxyphenazine (1-OHPHZ), 1-Hydroxyphenazine], the “E1/2 (vs. Ag/AgCl (3M KCl))/mV” value ([2]; pH 5) is given as −254 mV, the “E1/2 (vs. Ag/AgCl (3M KCl))/mV” value ([2]; pH 6) is given as −323 mV and the “E1/2 (vs. Ag/AgCl (3M KCl))/mV” value ([2]; pH 7) is given as −371 mV. For the same compound, the “E1/2 (vs. Ag/AgCl (3M KCl))/mV” value ([2]; pH 8) was −442 mV, the “E1/2 (vs. Ag/AgCl (3M KCl))/mV” value ([1]; pH 5) was −254 mV and the “E1/2 (vs. Ag/AgCl (3M KCl))/mV” value ([1]; pH 6) was −323 mV. The “E1/2 (vs. Ag/AgCl (3M KCl))/mV” value ([1]; pH 7) was −371 mV, the “E1/2 (vs. Ag/AgCl (3M KCl))/mV” value ([1]; pH 8) was −442 mV and the “E0' (vs. NHE) (mV)” value [3] was −174^a mV. The “Support survival?” value [4] was “Yes”, the “# of Redox cycles over 7 days” value [4] was 14 and the “Reduction by PA14?” value [5] was “Yes”.

For `O=C1c2ccc(S(=O)(=O)O)cc2C(=O)c2ccc(S(=O)(=O)O)cc21` [2,6-AQDS], the “Redox potentials E (mV)” value [6] is given as −184 mV, the “E0' (vs. NHE) (mV)” value [3] is given as −184^d mV and the “Support survival?” value [4] is given as “No”. For the same compound, the “# of Redox cycles over 7 days” value [4] was “No cycle” and the “Reduction by PA14?” value [5] was “Yes (very slowly)”.

For `NC1=C(C(=O)O)C(=O)c2ccccc2C1=O` [ACNQ ox/red, ACNQ], the “Redox potentials E (mV)” value [6] is listed as −71 mV.

In the case of `O=C1CCC(=O)N(O)CCC(O)CNC(=O)CCC(=O)N(O)CCC(O)CN1` (stereo not shown) [Alcaligin], the “Redox potentials E (mV)” value [6] is listed as −588 mV.

With `O=C(O)Cc1cc(O)ccc1O` [Homogentisic acid (HMA), Homogentisic acid] the “E0' (vs. NHE) (mV)” value [7] was “+306^b mV”, the “Support survival?” value [4] was “No” and the “# of Redox cycles over 7 days” value [4] was “No cycle”.

In the case of `CN(C)c1ccc2nc3ccc(=[N+](C)C)cc-3sc2c1` [Methylene blue (MB), Methylene blue], the “E0' (vs. NHE) (mV)” value [3] is listed as “+11 mV”, the “E0' (vs. NHE) (mV)” value [7] is listed as 0 mV and the “Support survival?” value [4] is listed as “No”. For the same compound, the “# of Redox cycles over 7 days” value [4] was 3 and the “Reduction by PA14?” value [5] was “Yes”.

In the case of `C[n+]1ccc(-c2cc[n+](C)cc2)cc1` [Paraquat], the “E0' (vs. NHE) (mV)” value [3] is given as −446^c mV, the “Support survival?” value [4] is given as “No” and the “# of Redox cycles over 7 days” value [4] is given as “No cycle”. The “Reduction by PA14?” value [5] was “No”.
